The target in the test is T338C c-Src (Gallus gallus (Chicken), UniProt P00523, T338C). The experiment in a line: In vitro kinase assay, T338C c-Src (c-Src-ES1). Type of test: biochemical. How it is done: In vitro kinase assays for c-Src variants were performed in 50 mM Tris (pH 8.0), 10 mM MgCl2 and 1 mg/mL BSA. When obtaining kinetic parameters (kcat, Km) kinase and peptide substrate (IYGEFKKK) (SEQ ID NO:51) concentrations were 2 nM and 500 μM, respectively, while ATP concentrations ranged from 2000-0.655 μM. Addition of nonradioactive ATP supplemented with ^32P ATP (3,000 Ci/mmol, NEN) was used to initiate kinase reactions. Time points were selected such that product formation never exceeded 10%. Reactions were quenched by spotting 3 μL quantities onto phosphocellulose sheets (P81, Whatman). Afterwards, the sheets were washed 3×5 minutes in 0.5% phosphoric acid and dried. Radioactivity was measured by phosphorimaging and recorded on a Typhoon fluorescence imager (Molecular Dynamics). Data were plotted as rate (min^−1) versus ATP concentration and fitted to the Michaelis-Menten equation, v=[(kcat)[S]]/(Km+[S]), using Kaleidagraph software (Synergy) to extract kinetic parameters. When obtaining IC50 values for the inhibitors, 2% (v/v) DMSO was included in kinase reactions. In these cases ATP, peptide, and enzyme concentrations were 15 nM, 100 μM and 5 nM, respectively, while inhibitor concentrations ranged from 10,000-0.610 nM. […] The data was fitted to a sigmoidal dose-response curve using Prism 4.0c (GraphPad Software) to obtain IC50 values.

Where two headings read alike, the source gives them in different places. Some results are limits rather than exact numbers.

Regarding `CC(C)n1nc(Cc2cccc(C(=O)CF)c2)c2c(N)ncnc21` [Compound 13, 1-(3-((4-amino-1-isopropyl-1H-pyrazolo[3,4-d]pyrimidin-3-yl)methyl)phenyl)-2-fluoroethanone], the “time dependence of inhibition of T338C c-Src” value is “time-dependent manner”. Moreover, the IC50 (ES1 = T338C, read-out: c-Src variant IC50 (nM) ES1) came out at 338 nM. Further, the “fold more potent than the corresponding ketone 14” value (T338C c-Src) was above 13 fold. Further, the IC50 (T338C c-Src IC50 (nM), preincubation time 2 min) is 1280 nM. Moreover, where the note is “T338C c-Src IC50 (nM), preincubation time 20 min”, the IC50 was determined as 318 nM. Besides, where the note is “T338C c-Src IC50 (nM), preincubation time 40 min”, the IC50 stood at 136 nM. For the same compound, under “inhibitor preincubated with Src ten minutes prior to addition of ATP, read-out: T338C c-Src IC50”, the IC50 amounted to 338 nM.

What is called IC50 is the midpoint of a concentration-inhibition curve.

Values taken from patent US9353116B2, “Methods and compositions for kinase inhibition” (THE REGENTS OF THE UNIVERSITY OF CALIFORNIA, priority 2010, dated 2016).
